One experiment concerns adiponectin mRNA. In words: adiponectin mRNA expression in differentiated 3T3-L1 adipocytes (Light Cycler). Particulars: 3T3-L1, 7 days after differentiation induction, non-treatment control = 100, average ± standard error. The format is cell-based. On the procedure: Differentiation Induction Medium (0.25 μM DEX, 0.5 mM MIX, 10 μg/mL Insulin/10% FBS/DMEM)
55 mL of FBS (fetal bovine serum (manufactured by GIBCO)) was added to 500 mL of DMEM (manufactured by SIGMA) so as to prepare 10% FBS/DMEM. To this 10% FBS/DMEM, 138.75 μL of 1 mM DEX (dexamethasone)/DMSO (manufactured by Nacalai Tesque, Inc.) and 555 μL of 10 mg/mL insulin/PBS (manufactured by SIGMA) were added. Incidentally, the insulin/PBS was obtained by adding 1N HCl to PBS in advance so as to make the solution acidic enough to allow insulin dissolution and then dissolving insulin. […]
Next, culture preadipocytes 3T-L1 were thawed, inoculated in a 100 mm dish and cultured until 3T3-L 1 cells reached about 80% confluence. […] 7 days after the initiation of the differentiation induction, mRNA was extracted using Sepasol(R)—RNA I super (manufactured by Nacalai Tesque, Inc.), and the mRNA expression amounts of 36B4, aP2 and adiponectin, which were indicators of an early period of adipocyte differentiation, were measured using Light Cycler™. Also, the medium 7 days after the differentiation induction was taken in an amount of 1 mL from each well, and the amount of adiponectin in the medium supernatant was measured using a mouse/rat adiponectin ELISA kit (trade name) (manufactured by Otsuka Pharmaceutical Co., Ltd.). […]

Another experiment has as its system HepG2 cells. In words: counting of the number of living cells (CellTiter 96 Aqueous One Solution). Type of experiment: cell-based, human. Particulars: HepG2, 30 hours, control (DMSO) = 100. The protocol: HepG2 was cultured to 80% to 90% confluence in a 100 mm/Collagen-Coated Dish (trade name, manufactured by Iwaki Glass Works, Co.). The medium was removed from the above-noted dish with a pipette and then HepG2 was washed with 2 mL of 1×PBS. Then, 2 mL of trypsin-EDTA was added, the above-noted dish was rotated slowly so that the trypsin-EDTA spread over the entire cells, this trypsin-EDTA was removed with a pipette, and the dish was allowed to stand still for 15 minutes in a CO2 incubator (37° C., 5%). To this dish, 12 mL of a growth medium was added, followed by mixing by pipetting, and 1 mL of this mixture solution was dispensed in each well of Collagen-Coated Microplates 12Well/Flat Bottom (trade name, manufactured by Iwaki Glass Works, Co.). After the cells were checked using a microscope, the wells were cultured in a CO2 incubator (37° C., 5%) for one to two days. After checking that 80% to 90% confluence was achieved using the microscope, a medium replacement was carried out by removing the medium and adding 800 μL of a medium containing aurapten. […] Using this collected medium, the number of living cells were counted, and the Western blotting and the ELISA measurement were carried out similarly to the above. From the result of the ELISA, the ratio of the VLDL secretion amount between the measurement group and the non-treated control group (measurement group/control group) was calculated for each sample.
The measurement was made using CellTiter 96 Aqueous One Solution Cell Proliferation Assay (trade name, manufactured by Promega Corporation). […] 100 μL of this mixture solution was dispensed to each of three wells of ELISA PLATE 96 well (trade name, manufactured by Iwaki Glass Works, Co.), and the absorbance at 490 nm was measured. The measurement was made using wallac ARVOsx (trade name, PerkinElmer Life Sciences, PerkinElmer, Inc.), and the mode of measurement was Absorbance (490 nm, 1.0 S). The ratio of the number of living cells between the measurement group and the non-treated control group (measurement group/control group) was calculated for each sample.

Consider 1 molecule from patent US8802723B2, “Metabolic syndrome-improving agent and medicine, supplement, functional food and food additive containing the same” (ARKRAY, Inc., priority 2005, dated 2014).

`CC(C)=CCC/C(C)=C/COc1ccc2ccc(=O)oc2c1` [Aurapten, aurapten]: the “Adiponectin mRNA expression amount (ratio to 36B4)” value was found to be 144.5 ± 26.7 in the experiment with adiponectin mRNA (aurapten 1 μM) and 161.4 ± 40.2 in the experiment on adiponectin mRNA (aurapten 5 μM). Moreover, the “Number of living cells (%)” value in the experiment with HepG2 cells (aurapten 10 μM) was determined as 100.3%; in the experiment on HepG2 cells (aurapten 20 μM), 99.9%; with HepG2 cells (aurapten 50 μM), 98.7%.
